Data from ChEMBL document CHEMBL2440076, “New triarylpyrazoles as broad-spectrum anticancer agents: design, synthesis, and biological evaluation” (Eur J Med Chem, 2013).

Columns and labels:
Type in all cases: functional
T47D [1] = experiment: Growth inhibition of human T47D cells assessed as cell growth at 10^-7 M after 48 hrs by sulforhodamine B assay; details: read-out: Activity
NCI-H322M [2] = experiment: Growth inhibition of human NCI-H322M cells assessed as cell growth at 10^-5 M after 48 hrs by sulforhodamine B assay; details: read-out: Activity
HCT-15 [3] = experiment: Growth inhibition of human HCT15 cells assessed as cell growth at 10^-5 M after 48 hrs by sulforhodamine B assay; details: HCT-15, 48 h, read-out: Activity
SR [4] = experiment: Growth inhibition of human SR cells assessed as cell growth at 10^-8 M after 48 hrs by sulforhodamine B assay; details: read-out: Activity
SNB-75 [5] = experiment: Growth inhibition of human SNB75 cells assessed as cell growth at 10^-5 M after 48 hrs by sulforhodamine B assay; details: SNB-75, 48 h, read-out: Activity
MDA-MB-435 [6] = experiment: Growth inhibition of human MDA-MB-435 cells assessed as cell growth at 10^-8 M after 48 hrs by sulforhodamine B assay; details: MDA-MB-435, 48 h, read-out: Activity
NCI-H226 [7] = experiment: Growth inhibition of human NCI-H226 cells assessed as cell growth at 10^-7 M after 48 hrs by sulforhodamine B assay; details: NCI-H226, 48 h, read-out: Activity
MDA-MB-435 [8] = experiment: Growth inhibition of human MDA-MB-435 cells assessed as cell growth at 10^-6 M after 48 hrs by sulforhodamine B assay; details: MDA-MB-435, 48 h, read-out: Activity
OVCAR-8 [9] = experiment: Growth inhibition of human OVCAR8 cells assessed as cell growth at 10^-4 M after 48 hrs by sulforhodamine B assay; details: OVCAR-8, 48 h, read-out: Activity
NCI-H23 [10] = experiment: Growth inhibition of human NCI-H23 cells assessed as cell growth at 10^-6 M after 48 hrs by sulforhodamine B assay; details: NCI-H23, 48 h, read-out: Activity
A498 = experiment: Growth inhibition of human A498 cells assessed as cell growth at 10^-7 M after 48 hrs by sulforhodamine B assay; details: A498, 48 h, read-out: Activity
NCI-H322M [11] = experiment: Growth inhibition of human NCI-H322M cells assessed as cell growth at 10^-6 M after 48 hrs by sulforhodamine B assay; details: read-out: Activity
RPMI-8226 = experiment: Growth inhibition of human RPMI8226 cells assessed as cell growth at 10^-5 M after 48 hrs by sulforhodamine B assay; details: RPMI-8226, 48 h, read-out: Activity
HL-60(TB) = experiment: Growth inhibition of human HL-60(TB) cells assessed as cell growth at 10^-5 M after 48 hrs by sulforhodamine B assay; details: HL-60, 48 h, read-out: Activity
BT-549 = experiment: Growth inhibition of human BT549 cells assessed as cell growth at 10^-5 M after 48 hrs by sulforhodamine B assay; details: BT-549, 48 h, read-out: Activity
[12] = Growth inhibition of human Hs 578T cells assessed as cell growth at 10^-8 M after 48 hrs by sulforhodamine B assay; details: read-out: Activity
NCI-H460 = experiment: Growth inhibition of human NCI-H460 cells assessed as cell growth at 10^-5 M after 48 hrs by sulforhodamine B assay; details: NCI-H460, 48 h, read-out: Activity
LOX IMVI [13] = experiment: Growth inhibition of human LOXIMVI cells assessed as cell growth at 10^-6 M after 48 hrs by sulforhodamine B assay; details: read-out: Activity
HCT-15 [14] = experiment: Growth inhibition of human HCT15 cells assessed as cell growth at 10^-7 M after 48 hrs by sulforhodamine B assay; details: HCT-15, 48 h, read-out: Activity
SNB-75 [15] = experiment: Growth inhibition of human SNB75 cells assessed as cell growth at 10^-8 M after 48 hrs by sulforhodamine B assay; details: SNB-75, 48 h, read-out: Activity
LOX IMVI [16] = experiment: Growth inhibition of human LOXIMVI cells assessed as cell growth at 10^-5 M after 48 hrs by sulforhodamine B assay; details: read-out: Activity
NCI-H23 [17] = experiment: Growth inhibition of human NCI-H23 cells assessed as cell growth at 10^-5 M after 48 hrs by sulforhodamine B assay; details: NCI-H23, 48 h, read-out: Activity
SR [18] = experiment: Growth inhibition of human SR cells assessed as cell growth at 10^-5 M after 48 hrs by sulforhodamine B assay; details: read-out: Activity
OVCAR-8 [19] = experiment: Growth inhibition of human OVCAR8 cells assessed as cell growth at 10^-7 M after 48 hrs by sulforhodamine B assay; details: OVCAR-8, 48 h, read-out: Activity
T47D [20] = experiment: Growth inhibition of human T47D cells assessed as cell growth at 10^-8 M after 48 hrs by sulforhodamine B assay; details: read-out: Activity
RXF 393 = experiment: Growth inhibition of human RXF393 cells assessed as cell growth at 10^-6 M after 48 hrs by sulforhodamine B assay; details: RXF 393, 48 h, read-out: Activity
SF-268 = experiment: Growth inhibition of human SF268 cells assessed as cell growth at 10^-8 M after 48 hrs by sulforhodamine B assay; details: SF-268, 48 h, read-out: Activity
TK-10 [21] = experiment: Growth inhibition of human TK10 cells assessed as cell growth at 10^-6 M after 48 hrs by sulforhodamine B assay; details: TK-10, 48 h, read-out: Activity
DU-145 = experiment: Growth inhibition of human DU145 cells assessed as cell growth at 10^-6 M after 48 hrs by sulforhodamine B assay; details: DU-145, 48 h, read-out: Activity
SK-MEL-28 = experiment: Growth inhibition of human SK-MEL-28 cells assessed as cell growth at 10^-8 M after 48 hrs by sulforhodamine B assay; details: SK-MEL-28, 48 h, read-out: Activity
SNB-75 [22] = experiment: Growth inhibition of human SNB75 cells assessed as cell growth at 10^-7 M after 48 hrs by sulforhodamine B assay; details: SNB-75, 48 h, read-out: Activity
HT-29 = experiment: Growth inhibition of human HT-29 cells assessed as cell growth at 10^-5 M after 48 hrs by sulforhodamine B assay; details: HT-29, 48 h, read-out: Activity
ACHN = experiment: Growth inhibition of human ACHN cells assessed as cell growth at 10^-4 M after 48 hrs by sulforhodamine B assay; details: read-out: Activity
A549 = experiment: Growth inhibition of human A549/ATCC cells assessed as cell growth at 10^-8 M after 48 hrs by sulforhodamine B assay; details: A549, 48 h, read-out: Activity
NCI-H226 [23] = experiment: Growth inhibition of human NCI-H226 cells assessed as cell growth at 10^-6 M after 48 hrs by sulforhodamine B assay; details: NCI-H226, 48 h, read-out: Activity
MCF7 = experiment: Growth inhibition of human MCF7 cells assessed as cell growth at 10^-8 M after 48 hrs by sulforhodamine B assay; details: MCF7, 48 h, read-out: Activity
TK-10 [24] = experiment: Growth inhibition of human TK10 cells assessed as cell growth at 10^-7 M after 48 hrs by sulforhodamine B assay; details: TK-10, 48 h, read-out: Activity
UO-31 = experiment: Growth inhibition of human UO31 cells assessed as cell growth at 10^-6 M after 48 hrs by sulforhodamine B assay; details: UO-31, 48 h, read-out: Activity
NCI-H522 = experiment: Growth inhibition of human NCI-H522 cells assessed as cell growth at 10^-6 M after 48 hrs by sulforhodamine B assay; details: NCI-H522, 48 h, read-out: Activity

SMILES	growth at 0.1 µM (T47D [1]) [%]	growth at 10 µM (NCI-H322M [2]) [%]	growth at 10 µM (HCT-15 [3]) [%]	growth at 0.01 µM (SR [4]) [%]	growth at 10 µM (SNB-75 [5]) [%]	growth at 0.01 µM (MDA-MB-435 [6]) [%]	growth at 0.1 µM (NCI-H226 [7]) [%]	growth at 1 µM (MDA-MB-435 [8]) [%]	growth at 100 µM (OVCAR-8 [9]) [%]	growth at 1 µM (NCI-H23 [10]) [%]	growth at 0.1 µM (A498) [%]	growth at 1 µM (NCI-H322M [11]) [%]	growth at 10 µM (RPMI-8226) [%]	growth at 10 µM (HL-60(TB)) [%]	growth at 10 µM (BT-549) [%]	growth at 0.01 µM [12] [%]	growth at 10 µM (NCI-H460) [%]	growth at 1 µM (LOX IMVI [13]) [%]	growth at 0.1 µM (HCT-15 [14]) [%]	growth at 0.01 µM (SNB-75 [15]) [%]	other results
COc1cc(-c2nn(-c3cccc(NC(=O)c4ccc(N5CCOCC5)c(C(F)(F)F)c4)c3)cc2-c2ccncc2)ccc1Cl	93	26	7	91	-13	90	87	-33	1	47	77	36	6	2	25	96	1	29	65	89	growth at 10 µM (LOX IMVI [16]): -8%; growth at 10 µM (NCI-H23 [17]): 4%; growth at 10 µM (SR [18]): 4%; growth at 0.1 µM (OVCAR-8 [19]): 91%; growth at 0.01 µM (T47D [20]): 102%; growth at 1 µM (RXF 393): -16%; growth at 0.01 µM (SF-268): 97%; growth at 1 µM (TK-10 [21]): 58%; growth at 1 µM (DU-145): 16%; growth at 0.01 µM (SK-MEL-28): 100%; growth at 0.1 µM (SNB-75 [22]): 75%; growth at 10 µM (HT-29): -43%; growth at 100 µM (ACHN): 2%; growth at 0.01 µM (A549): 94%; growth at 1 µM (NCI-H226 [23]): 28%; growth at 0.01 µM (MCF7): 87%; growth at 0.1 µM (TK-10 [24]): 106%; growth at 1 µM (UO-31): 33%; growth at 1 µM (NCI-H522): 17%
COc1cc(-c2nn(-c3cccc(NC(=O)c4ccccc4)c3)cc2-c2ccncc2)ccc1Cl	92	36	17	94	1	96	96	-28	26	63	89	78	10	13	26	103	7	36	96	89	growth at 10 µM (LOX IMVI [16]): 11%; growth at 10 µM (NCI-H23 [17]): 21%; growth at 10 µM (SR [18]): 2%; growth at 0.1 µM (OVCAR-8 [19]): 105%; growth at 0.01 µM (T47D [20]): 97%; growth at 1 µM (RXF 393): 35%; growth at 0.01 µM (SF-268): 95%; growth at 1 µM (TK-10 [21]): 80%; growth at 1 µM (DU-145): 44%; growth at 0.01 µM (SK-MEL-28): 99%; growth at 0.1 µM (SNB-75 [22]): 86%; growth at 10 µM (HT-29): 7%; growth at 100 µM (ACHN): 27%; growth at 0.01 µM (A549): 96%; growth at 1 µM (NCI-H226 [23]): 64%; growth at 0.01 µM (MCF7): 92%; growth at 0.1 µM (TK-10 [24]): 97%; growth at 1 µM (UO-31): 42%; growth at 1 µM (NCI-H522): 15%
